Test results from patent publication US20230183228A1, “SUBSTITUTED PYRAZOLYL COMPOUNDS AND METHODS OF USE THEREOF” (Chinook Therapeutics Canada, Inc., priority 2020, published 2023).
pIC50: −log10 of the molar value. Marks after values point to notes of the source that are not given here.

Assays:
[1] = molecular target: T1, human recombinant C-terminal His-tagged LDHA (Homo sapiens, UniProt P00338); experiment: Human LDHA enzyme assay; assay type: biochemical; details: 50 μM pyruvate, 50 μM NADH, no HSA
T1 construct: His (C)
Method: (§1) Compounds were dissolved in DMSO and preincubated with human recombinant C-terminal His-tagged LDHA (0.070 μg/mL) for 10 min at room temperature in assay buffer consisting 50 mM Tris, pH 7.5 and 100 mM NaCl in black walled, clear bottom, non-binding 96-well plates. Equal volumes of substrate solution containing 100 μM of pyruvate and 100 μM of NADH in assay buffer was added to each well (final concentration 0.035 μg/mL enzyme, 50 μM pyruvate, 50 μM NADH, and 1% DMSO). For human serum albumin (HSA) shift assay, the compounds were preincubated with the enzyme in assay buffer containing 20% HSA before substrate addition (final concentration 10% HSA). The reaction was monitored at 340 nm on a plate reader (Molecular Devices) in kinetic mode for 15 min. The rate of the reaction was determined by plotting absorbance vs time.

[2] = test system: fresh primary mouse hepatocytes; experiment: Primary mouse hepatocyte assay (lactate production); assay type: cell-based
Method: Compounds were evaluated in an ex vivo assay consisting of fresh primary mouse hepatocytes. Hepatocytes were isolated from wild type mice (C57BL/6NCrl from Charles River Labs) using a two-step collagenase perfusion technique which involves a sequential perfusion of anesthetized mice with Hanks' balanced salt solution and collagenase. Following isolation, viable wild type hepatocytes (0.1 M cells/well) were incubated with test compound in presence of pyruvate and compound potency was evaluated by measuring the lactate produced by the cells using liquid chromatography coupled to mass spectrometry. Chromatographic separation was achieved on an XDB-C18 4.6×50 mm column (Agilent, Cat #927975-902) at a flow rate of 1 mL/min Mobile phase A consisted of 0.1% formic acid in water and mobile phase B consisted of acetonitrile. A gradient program was initiated starting at 5% B which was held for 1 minutes, then ramped from 5% to 95% B over 1 minute. After holding at 95% B for 1 minute, the program changed back to 5% B. The column was equilibrated with 5% B for […] before the next injection. The mass spectrometer was operated in negative mode with electrospray ionization. The following transition along with their collision energy (CE) were used: 89→43 (CE: −16 V) for lactate and 92→45 (CE: −16 V) for ^13C3-Lactate (internal standard).

[3] = Liver and plasma concentrations in c57/bl6 mice; assay type: in vivo; details: 20 mg/kg PO, 4 h
Method: [The procedure below names another organism; the source says it served here with some conditions changed.] (§2) Plasma and liver (target organ) concentrations of test compounds were determined in rats following a single per os (PO) administration of the test compounds. Male Sprague Dawley rats (6-8 weeks of age, Charles River Labs) were fasted overnight and a single dose of test compounds (10 mg/kg; as a suspension in 0.5% methyl cellulose) was administered by PO gavage. Rats were then sacrificed at 4 and 24 h after administration of the test compounds, and plasma and liver tissue samples were collected. Liver tissue samples were homogenized in 5 volumes of water:acetonitrile (50/50; v/v) mixture using a bead mill homogenizer. Plasma and liver homogenate samples were processed by protein precipitation using acetonitrile and the concentrations of the test compounds were determined by liquid chromatography-tandem mass spectrometry (SciEx triple quad 5500+ with Exion UPLC).
(§3) Liver and plasma exposures at the 4 h and 24 h timepoints for the various compounds are described in Table 5 below. Measured compound concentrations are as follows: ++++>10 μM; 10 μM≥+++>5 μM; 5 μM≥++>1 μM; 1 μM≥+>0.25 μM; and 0.25 μM≥−.

[4] = molecular target: T1, human recombinant C-terminal His-tagged LDHA; experiment: Human LDHA enzyme assay, human serum albumin (HSA) shift; assay type: biochemical; details: final concentration 10% HSA
Method: as §1

[5] = Liver-targeted tissue distribution profile study in rats; assay type: in vivo, Sprague Dawley rats; details: rat, single 10 mg/kg PO
Method: as §2, §3

[6] = Run at 0.4M cells/well concentration of hepatocytes

Row | SMILES | pIC50 [1] | pIC50 [2, 6] | Measured Compound Concentrations Liver - 4 h [3] | Measured Compound Concentrations Plasma - 4 h [3] | pIC50 [4] | pIC50 ([2]; 0.1 M cells/well) | Measured Compound Concentrations Liver - 4 h [5] | Measured Compound Concentrations Liver - 24 h [5] | Measured Compound Concentrations Plasma - 4 h [5] | Measured Compound Concentrations Plasma - 24 h [5]
1 | NS(=O)(=O)c1ccc(Cc2c(-c3ccc(F)cc3)nn(-c3nc(C(=O)O)cs3)c2CC2CC2)cc1 [Example 5, 2-(5-(cyclopropylmethyl)-3-(4-fluorophenyl)-4-(4-sulfamoylbenzyl)-1H-pyrazol-1-yl)thiazole-4-carboxylic acid] | > 9.00 | 6.00 to 6.60 | ++* (5 μM≥++>1 μM) | −* (0.25 μM≥−) | 8.00 to 9.00 | – | – | – | – | –
2 | CC(C)Oc1cc(-c2nn(-c3nc(C(=O)O)cs3)c(CC3CC3)c2Cc2ccc(S(N)(=O)=O)c(F)c2)ccc1F [Example 7, 2-(5-(Cyclopropylmethyl)-3-(4-fluoro-3-isopropoxyphenyl)-4-(3-fluoro-4-sulfamoylbenzyl)-1H-pyrazol-1-yl)thiazole-4-carboxylic acid] | > 9.00 | 6.00 to 6.60 | ++* (5 μM≥++>1 μM) | −* (0.25 μM≥−) | 8.00 to 9.00 | – | – | – | – | –
3 | NS(=O)(=O)c1ccc(Cc2c(-c3ccc(C(F)F)cc3)nn(-c3nc(C(=O)O)cs3)c2CC2CC2)cc1F [Example 21, 2-(5-(cyclopropylmethyl)-3-(4-(difluoromethyl)phenyl)-4-(3-fluoro-4-sulfamoylbenzyl)-1H-pyrazol-1-yl)thiazole-4-carboxylic acid] | > 9.00 | – | – | – | 7.00 to 8.00 | > 7.00 | ++ (5 μM≥++>1 μM) | − (0.25 μM≥−) | − (0.25 μM≥−) | − (0.25 μM≥−)
4 | NS(=O)(=O)c1ccc(Cc2c(-c3cc(F)c(F)c(F)c3)nn(-c3nc(C(=O)O)cs3)c2CC2CC2)cc1F [Example 28, 2-(5-(Cyclopropylmethyl)-4-(3-fluoro-4-sulfamoylbenzyl)-3-(3,4,5-trifluorophenyl)-1H-pyrazol-1-yl)thiazole-4-carboxylic acid] | > 9.00 | – | – | – | 8.00 to 9.00 | > 7.00 | +++ (10 μM≥+++>5 μM) | − (0.25 μM≥−) | − (0.25 μM≥−) | − (0.25 μM≥−)
5 | NS(=O)(=O)c1ccc(Cc2c(-c3ccccc3)nn(-c3nc(C(=O)O)cs3)c2CC2CC2)cc1F [Example 20, 2-(5-(cyclopropylmethyl)-4-(3-fluoro-4-sulfamoylbenzyl)-3-phenyl-1H-pyrazol-1-yl)thiazole-4-carboxylic acid] | > 9.00 | – | – | – | 8.00 to 9.00 | > 7.00 | ++++ (++++>10 μM) | − (0.25 μM≥−) | − (0.25 μM≥−) | − (0.25 μM≥−)
6 | NS(=O)(=O)c1ccc(Cc2c(-c3cccc(C(F)(F)F)c3)nn(-c3nc(C(=O)O)cs3)c2CC2CC2)cc1F [Example 18, 2-(5-(cyclopropylmethyl)-4-(3-fluoro-4-sulfamoylbenzyl)-3-(3-(trifluoromethyl)phenyl)-1H-pyrazol-1-yl)thiazole-4-carboxylic acid] | > 9.00 | – | – | – | 8.00 to 9.00 | > 7.00 | +++ (10 μM≥+++>5 μM) | − (0.25 μM≥−) | − (0.25 μM≥−) | − (0.25 μM≥−)
7 | NS(=O)(=O)c1ccc(Cc2c(-c3cc(Cl)cc(Cl)c3)nn(-c3nc(C(=O)O)cs3)c2CC2CC2)cc1F [Example 26, 2-(5-(cyclopropylmethyl)-3-(3,5-dichlorophenyl)-4-(3-fluoro-4-sulfamoylbenzyl)-1H-pyrazol-1-yl)thiazole-4-carboxylic acid] | > 9.00 | – | – | – | 7.00 to 8.00 | 6.60 to 7.00 | ++ (5 μM≥++>1 μM) | − (0.25 μM≥−) | − (0.25 μM≥−) | − (0.25 μM≥−)
8 | NS(=O)(=O)c1ccc(Cc2c(-c3ccc(F)c(F)c3)nn(-c3nc(C(=O)O)cs3)c2CC2CC2)cc1F [Example 12, 2-(5-(Cyclopropylmethyl)-3-(3,4-difluorophenyl)-4-(3-fluoro-4-sulfamoylbenzyl)-1H-pyrazol-1-yl)thiazole-4-carboxylic acid] | > 9.00 | – | – | – | 8.00 to 9.00 | > 7.00 | +++ (10 μM≥+++>5 μM) | − (0.25 μM≥−) | − (0.25 μM≥−) | − (0.25 μM≥−)
9 | N#Cc1cc(-c2nn(-c3nc(C(=O)O)cs3)c(CC3CC3)c2Cc2ccc(S(N)(=O)=O)c(F)c2)ccc1F [Example 2, 2-(3-(3-Cyano-4-fluorophenyl)-5-(cyclopropylmethyl)-4-(3-fluoro-4-sulfamoylbenzyl)-1H-pyrazol-1-yl)thiazole-4-carboxylic acid] | > 9.00 | – | – | – | 8.00 to 9.00 | > 7.00 | +++ (10 μM≥+++>5 μM) | − (0.25 μM≥−) | − (0.25 μM≥−) | − (0.25 μM≥−)
10 | NS(=O)(=O)c1ccc(Cc2c(-c3ccc(F)c(Cl)c3)nn(-c3nc(C(=O)O)cs3)c2CC2CC2)cc1F [Example 8, 2-(3-(3-Chloro-4-fluorophenyl)-5-(cyclopropylmethyl)-4-(3-fluoro-4-sulfamoylbenzyl)-1H-pyrazol-1-yl)thiazole-4-carboxylic acid] | > 9.00 | 6.60 to 7.00 | – | – | 8.00 to 9.00 | – | +++ (10 μM≥+++>5 μM) | − (0.25 μM≥−) | − (0.25 μM≥−) | − (0.25 μM≥−)
11 | NS(=O)(=O)c1ccc(Cc2c(-c3ccc(F)cc3)nn(-c3nc(C(=O)O)cs3)c2CC2CC2)cc1F [Example 1, 2-(5-(cyclopropylmethyl)-4-(3-fluoro-4-sulfamoylbenzyl)-3-(4-fluorophenyl)-1H-pyrazol-1-yl)thiazole-4-carboxylic acid] | > 9.00 | – | – | – | 8.00 to 9.00 | > 7.00 | ++++ (++++>10 μM) | + (1 μM≥+>0.25 μM) | − (0.25 μM≥−) | − (0.25 μM≥−)
